System: ligand-dependent transcription factors (AhR, ER, and AR)
Assay: Reporter gene (luciferase) assay in Neuro2a cells carrying PGV-THp03 (SEQ ID No: 2)
Assay type: cell-based, mouse
Settings: for luciferase activity increase: 30 hours, PGV-THp03, AhR-introduced Neuro2a
Experimental: A vector (PGV-THp03) containing the upstream region (SEQ ID No: 2) ranging from about −300 to 0 position of the TH gene-coding region, which was prepared in Example 4, was used. Neuro2a was used as the cell.
Two kinds of vectors, pcDNA4-rAhR (Example 1) and pcDNA4/V5-His/lacZ (Invitrogen), were introduced into Neuro2a, together with PGV-THp03. pcDNA4-rAhR was introduced for constitutive expression of the SD-line rat AhR gene (SEQ ID No: 10) in the cell, and pcDNA4/V5-His/lacZ was introduced for normalization of the vector transfection efficiency.
The vectors were introduced into the cell by using LIPOFECTAMINE 2000 (Invitrogen). The cell was cultured on a 24-well plate, and the operation was performed according to the manual of Invitrogen. A total of […] of vectors (0.4 μg of PGV-THp03, 0.2 μg of pcDNA4-rAhR, and 0.2 μg of pcDNA4/V5-His/lacZ) suspended in 50 μl of OPTI-MEM medium and 2 μl of LIPOFECTAMINE 2000 suspended in 50 μl of OPTI-MEM medium were mixed, and incubated at room temperature for 20 minutes to form nucleic acid/LIPOFECTAMINE 2000 complex. The obtained suspension containing the complex was added to Neuro2a cell culture, which has been previously cultured overnight in 500 μl of DF1:1 medium (containing 10% fetal calf serum) (0.8×10^5 cells were seeded on previous day), to allow incorporation of the vectors into the cell. The cell was cultured additionally for 24 hours after transfection, for the purpose of improvement in vector incorporation efficiency and expression of the protein derived from the introduced vectors.
As the test substances, vinclozolin (10 μM), dimethyl phthalate (10 μM), benzopyrene (1 μM), and dioxin (TCDD) (10 nM) were used. After the transfection and the additional incubation for 24 hours, the medium was replaced with a fresh medium containing any one of the test substances, and the cell was cultured additionally for 30 hours. After 30 hours, the medium was removed from the 24-well plate, and the cell was washed with phosphate buffer twice. 100 μl of a protein extraction solution (manufactured by TOYO B-NET) was added to each well, and the cell suspension was stirred gently at room temperature for 15 minutes and then frozen at −80° C. The frozen solution was thawed at room temperature, and the resulting solution was recovered in a tube and diluted ten times with a protein extraction reagent containing 1 mg/ml bovine serum albumin luciferase and β-galactosidase activities in the diluted solution were measured, and the expression amount of the reporter gene was calculated as a relative luminescence intensity per 1 ng of β-galactosidase per second (RLU/sec/ng β-galactosidase).

Structure (SMILES) | luciferase activity increase (10 μM) | change in luciferase activity (10 μM, PGV-THp03, cell with no AhR introduced) | luciferase activity increase (1 μM)
COC(=O)c1ccccc1C(=O)OC [Dimethyl phthalate, dimethyl phthalate] | approximately 1.2 times |  | 
C=CC1(C)OC(=O)N(c2cc(Cl)cc(Cl)c2)C1=O (stereo not shown) [vinclozolin] | approximately 1.3 times | no change in luciferase activity | 
c1ccc2c(c1)c1cccc3ccc4cccc2c4c31 [benzopyrene] |  |  | approximately 1.3 times
